In paper PMC10447463, “Data-mining unveils structure–property–activity correlation of viral infectivity enhancing self-assembling peptides” (Nature Communications, 2023):
Read-outs that look alike come from different tables or passages of the source.

How the values were obtained:
[1] = Turbidity, derived count rate of scattered light; assay type: physicochemical; conditions: for Count Rate / kcps: derived count rate of scattered light at 633 nm, 173°, from zeta-potential measurement, 0.1 mg/mL in 1 mM KCl after 1 d at 1 mg/mL in PBS, turbidity / microscopic aggregation, mean of triplicate
Method in brief: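 Samples: 1 mg/mL in PBS pH 7.4 (from DMSO), 1 d at RT, then diluted in 1 mM KCl immediately before measurement. Triplicates, two independent runs averaged.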

[2] = assay type: physicochemical; design: key to Fibril / Fibril Formation / TEM 2cat / Fibril: 1 = fibrils present; 0 non-fibrillar structures; conditions: for Fibril / Fibril Formation: 1 mg/mL, uranyl acetate stain, qualitative
[3] = Turbidity, derived count rate of scattered light; assay type: physicochemical; conditions: for Count Rate: derived count rate of scattered light (turbidity); for Log10 Count Rate: turbidity, derived count rate of scattered light, data of Figure 2D
[4] = Log10 of derived count rate of scattered light (turbidity)
[5] = log10 of derived count rate of scattered light (turbidity)
[6] = turbidity, Log10 of derived count rate of scattered light, Figure 3A source data
[7] = Fig S10 panel D, fibril category by TEM
[8] = TEM, 1 = fibrils present, 0 = non-fibrillar
[9] = TEM, 1 = fibrils present, 0 = non-fibrillar structures
[10] = category: fibrils present or non-fibrillar
[11] = FigS12 panel A, fibril category by TEM

Row | Sequence | Log10 Count Rate [1, 4] | Count Rate / kcps [1] [kcps] | Log10 Count Rate [1, 5] | Zeta Count Rate ([1]; peptides with TEM 2cat 0) [kcp] | Log10 Count Rate [1, 6] | TEM 2cat [2, 7] | Fibril / Fibril Formation ([2]; TEM) | Fibril [2, 8] | Fibril [2, 9] | TEM 2cat [2, 10] | Count Rate [3] | Log10 Count Rate [3] | Log10 Count Rate ([1]; logarithm of count rate in kcps) | TEM 2cat [2, 11] | Fibril ([2]; FigS12 panel B, TEM) | Fibril ([2]; Fig S10 panel E)
1 | KIKIKIKIWWWW | 4.094 | 12421 | 4.094 | 12421 | 4.094 | 0 | 0 | 0 | 0 | 0 | 12420.6 | 4.094 |  |  |  | 
2 | KIKIQINMWQRGD | 3.445 | 2783 | 3.445 |  | 3.445 | 0 | 0 | 0 | 0 |  | 2783 | 3.445 | 3.4 | 0 | 0 | 
3 | KFKFEFEF | 3.34 | 2186 | 3.34 |  | 3.34 | 1 | 1 | 1 | 1 |  | 2186 | 3.34 |  | 1 | 1 | 
4 | CEIEIQINMWQ | 3.196 | 1570 | 3.196 |  | 3.196 | 1 | 1 | 1 | 1 | 1 | 1570 | 3.196 |  |  |  | 1
